In patent US20080090278A1, “METHOD FOR ENHANCING STABILITY OF A COMPOSITION COMPRISING SOLUBLE GLUCOSE DEHYDROGENASE (GDH)” (TOYO BOSEKI KABUSHIKI KAISHA, priority 2006, published 2008):

How the values were obtained:
Type in all cases: physicochemical
[1] = system: recombinant FAD-GDH (rAO-FAD-GDH) derived from Aspergillus oryzae; experiment: Thermal stabilization effect of stabilizing agents on rAO-FAD-GDH in solution (Examples 3-6)
[2] = system: recombinant FAD-GDH (rAT-FAD-GDH) derived from Aspergillus terreus; experiment: Thermal stabilization effect of stabilizing agents on rAT-FAD-GDH in solution (Example 9); conditions: for Residual activity ratio (%) / GLD activity value (U/ml) 50° C., 15 min: Table 10, buffer 50 mM K-PB, stabilizer at each final concentration described in Table 1; for Residual activity ratio (%): 50° C., 15 min versus 4° C.; for thermal stabilization effect on FAD-GDH (in words): rAT-FAD-GDH, 50° C. for 15 minutes, Example 9
Procedure: (§1) The reaction reagent (3 mL) is preliminarily heated at 37° C. for 5 minutes. The GDH solution (0.1 mL) is added and gently mixed, subsequently the change of absorbance at 600 nm is recorded for 5 minutes using the spectrophotometer controlled to 37° C. using water as the control, and the change of absorbance per one minute (ΔODTEST) is calculated from the linear portion of the record. The solvent in which GDH will be dissolved in place of the blinded GDH solution is added to the reagent mixture, and the change of absorbance (ΔODBLANK) per one minute is measured. The GDH activity is calculated from these values according to the following formula. One unit (U) in the GDH activity is defined as the amount of the enzyme which reduces […] DCPIP for one minute in the presence of 200 mM D-glucose.
Two tubes in which each stabilizing agent described in Table 1 had been added at each final concentration to 0.9 mL of this enzyme solution to make the total volume 1.0 mL were prepared.
(§2) In two tubes, one tube was stored at 4° C. and another tube was treated at 50° C. for 15 minutes. Then, the FAD-GDH activity in each tube was measured. The enzyme activity in the tube stored at 4° C. was made 100, and comparing with it, the activity value after being treated at 50° C. for 15 minutes was calculated as the residual activity ratio (%).

[3] = system: recombinant FAD-GDH (rAO-FAD-GDH) derived from Aspergillus oryzae; experiment: Thermal stabilization effect of stabilizing agents on rAO-FAD-GDH in solution (Examples 3-6); conditions: for thermal stabilization effect on FAD-GDH (in words): rAO-FAD-GDH, 50° C. for 15 minutes, Example 3; for Residual activity ratio (%) after treatment at 50° C., 15 min: stabilizer final concentration 1%, rAO-FAD-GDH about 2 U/mL, 50 mM potassium phosphate buffer pH 5.5, 0.1% Triton X-100, 4° C. sample = 100
Procedure: Enhancement of the thermal stability referred to herein means increasing of a residual ratio (%) of the GDH enzyme kept after giving the treatment with heat at a certain temperature for a certain time period to the composition comprising the GDH enzyme. In the present invention, the activity in the sample stored at 4° C. which is nearly completely kept is made 100%, this is compared with the activity in the GDH solution after giving the treatment with heat at a certain-temperature for a certain time period, and the residual ratio of the enzyme is calculated.
In the method for measuring the activity described in the method for measuring the GDH enzyme activity described later, an activity value (a) of GDH in the solution stored at 4° C. and an activity value (b) of GDH after giving the treatment with heat at a certain temperature for a certain time period were measured, a relative value[(b)/(a)×100] when the activity value (a) was made 100 was calculated. This relative value was made the residual ratio (%). Comparing the presence with the absence of the added compound, when the residual ratio was increased by the addition of the compound, it was determined that the thermal stability was enhanced.
In the present invention, the activity of FAD-dependent GDH is measured as follows.
The reaction-reagent is made by mixing 15.6 mL of the PIPES buffer, 0.2 mL of the DCPIP solution and 4 mL of the D-glucose solution.
as §1, with “D-glucose. Activity (U/mL)=[−(ΔODTEST−ΔODBLANK)×3.0×dilution scale]/(16.3×0.1×1.0) In the above formula, 3.0 represents a liquid amount (mL) of the reaction reagent+the enzyme solution, 16.3 represents a millimolar molecular absorbance coefficient (cm^2/μmol) in the condition for measuring this enzyme, 0.1 represents the liquid amount of the enzyme solution (mL) and 1.0 represents a light path length (cm) of the cell.” for “D-glucose.”
The study was performed in accordance with the method for measuring the FAD-GDH activity in Test Example 1 described above.
First, 50 mL of an enzyme solution obtained by dissolving the recombinant FAD-GDH (rAO-FAD-GDH)-derived from Aspergillus oryzae obtained in Example 1 at about 2 U/mL in an enzyme dilution solution (50 mM potassium phosphate buffer, pH 5.5, 0.1% Triton X-100) was prepared. Two tubes in which each stabilizing agent described in Table 1 had been added at each final concentration to 0.9 mL of this enzyme solution to make the total volume 1.0 mL were prepared.
as §2, with “stored at […] and” for “stored at 4° C. and”
The method was in accordance with Example 3 described above.
The methods were in accordance with Example 3 above.

[4] = system: recombinant FAD-GDH preparation (rAO-FAD-GDH) derived from Aspergillus oryzae; experiment: Storage stability of freeze-dried (powdered) rAO-FAD-GDH with stabilizing agents (Example 8)
Procedure: as §1, with “D-glucose. Activity (U/mL)=[−(ΔODTEST−ΔODBLANK)×3.0×dilution scale]/(16.3×0.1×1.0) In the above formula, 3.0 represents a liquid amount (mL) of the reaction reagent+the enzyme solution, 16.3 represents a millimolar molecular absorbance coefficient (cm^2/μmol) in the condition for measuring this enzyme, 0.1 represents the liquid amount of the enzyme solution (mL) and 1.0 represents a light path length (cm) of the cell.” for “D-glucose.”
The study was performed using the recombinant FAD-GDH preparation (rAO-FAD-GDH) derived from Aspergillus oryzae obtained in Example 1 in accordance with the method for measuring the FAD-GDH activity in Test Example 1 above. The amount of the protein which occupied in the FAD-GDH enzyme solution was measured, and 1 mL of the solution in which the stabilizing agent corresponding to 60% or 30% relative to this had been dissolved therein was prepared.
Several vials in which 0.2 mL of the enzyme solution containing each stabilizing agent had been correctly dispensed were prepared. As the control, the vials in which the stabilizing agent had not been added was prepared. The prepared vials were subjected to vacuum freeze-dry (FDR) to completely evaporate the water. Then, only two samples in which the same stabilizing agent had been added were subjected to the measurement of the activity. Meanwhile, the remaining vials were treated at 25° C. at a humidity of 70% for several hours, and then stored at 37° C. for one week. Subsequently, the residual activity was measured. The residual activity ratio (%) was calculated by making the average activity immediately after FDR 100% and measuring the average activity of the samples after storing at 37° C.

[5] = Table 4, each stabilizer at final concentration 1%, alone or in pairs

| GDH Residual activity ratio (%) after treatment at 50° C., 30 min [1, 5] [%] | Residual activity ratio (%) [2] [%] | thermal stabilization effect on FAD-GDH (in words) [2] | thermal stabilization effect on FAD-GDH (in words) [3] | Residual activity ratio (%) after treatment at 50° C., 15 min [3] [%] | GDH Residual activity ratio (%) after treatment at 50° C., 30 min ([1]; final concentration 0.01%) [%] | GDH Residual activity ratio (%) after treatment at 50° C., 30 min ([1]; final concentration 0.1%) [%] | GDH Residual activity ratio (%) after treatment at 50° C., 30 min ([1]; final concentration 1%) [%] | thermal stabilization effect of trehalose (in words) ([1]; final concentration of 0.01%, 50° C., 30 min) | storage stabilization effect on the powdered enzyme (in words) ([4]; Example 8, Tables 7 and 8) | GDH activity Residual ratio (%) ([4]; Table 8, stabilizer 60%, 70% humidity, 25° C., 7 h, then 37° C. for 1 week) | Structure (SMILES) | GLD activity value (U/ml) 50° C., 15 min [2] [U/ml] | GDH activity (U/vial) Immediately after pulverization ([4]; Table 8, stabilizer 60%) [U/vial] | GDH activity (U/vial) Immediately before pulverization ([4]; Table 8, stabilizer 60%) [U/vial] | GDH activity (U/vial) At 37° C. for 1 week ([4]; Table 8, stabilizer 60%, after treatment at 70% humidity, 25° C., 7 h, then 37° C. for 1 week) [U/vial] |
| --- | --- | --- | --- | --- | --- | --- | --- | --- | --- | --- | --- | --- | --- | --- | --- |
| 4.84 | 3.3 | high effect | high effect | 26.4 |  |  |  |  |  |  | NCC(=O)O [Glycine] | 0.094 |  |  |  |
| 47.78 | 16.5 | high effect | high effect | 65.3 |  |  |  |  |  |  | O=C[C@@H](O)[C@@H](O)[C@H](O)[C@H](O)CO [D-(+)-mannose] | 0.448 |  |  |  |
| 39.10 | 15.8 | high effect | high effect | 64.7 | 11.2 | 20.4 | 42.3 | the stabilization effect was exerted | enhance the stability | 48.6 | O.O.OC[C@H]1O[C@H](O[C@H]2O[C@H](CO)[C@@H](O)[C@H](O)[C@H]2O)[C@H](O)[C@@H](O)[C@@H]1O [D-(+)-trehalosedihydrate] | 0.431 | 401 | 397 | 195 |
